## COc1cc(N2CCN([C@H](C)c3ccc(OC)c(OC)c3)CC2)ccc1Cl [compound 4, (R)-1-(4-Chloro-3-Methoxy-Phenyl)-4-[1-(3,4-Dimethoxy-Phenyl)-Ethyl]-Piperazine]
  melting point: 172 to 176 °C

Source: patent US6953801B2, “Melanin concentrating hormone receptor ligands: substituted 1-benzyl-4-aryl piperazine analogues” (Neurogen Corporation, priority 2001, dated 2005)
